18 compounds from US20050256132A1, “Use of ER selective NF-kB inhibitors for the treatment of sepsis” (priority 2003, published 2005) can be followed below.

The subject of one data set is ER/IL-6. Description: Endothelial Cell ER/IL-6 Assay, IL-6 promoter luciferase (Table 2). It is filed as cell-based, human. The conditions noted are these: for Emax: read-out: IL6 luc % Efficacy. Here is the method: (§1) T-175 flasks of 100% confluent HAECT-1 cells (immortalized human aortic endothelial cells) were washed with 8 ml of HBSS (HEPES buffered saline solution) and infected for fours hours with 6 ml of a 1:10 dilution of Ad5-wt-hERα virus (an adenovirus transfection vector that mediates CMV promoter driven expression of human ERα) in phenol red free Endothelial Cell Basal medium (Clonetics, San Diego, Calif., Catalog # CC-3129) containing 0.25% bovine serum albumin (EDM-BSA). After four hours, cells were washed with EDM-BSA and incubated overnight in the same medium. Following overnight incubation, cells were washed with EDM-BSA and infected for 2 hours with 6 ml of a 1:10 dilution of Ad5-3x(NFκB).Luc virus (Adenovirus luciferase expression vector driven by three repeats of the MHC NFκb sites 5′ to the thymidine kinase promoter) in EDM-BSA. After two hours, cells were washed and incubated at 34° C. for one hour. Cells were then washed, trypsinized, counted, and resuspended in 95% FBS/5% dimethylsulfoxide at a concentration of […], frozen as 1 or 5 ml aliquots in cryo-vials and stored at −150° C. Control (no ER infection) cells were processed as above without Ad5-wt-hERα virus infection.
(§2) ERα infected HAECT-1 cells or control cells were thawed, diluted 42× in warm EBM-BSA, plated into 96-well plates at 0.1 ml/well and incubated for 4 hours at 34° C. Test compounds were added to the cells at 2× stocks in EBM-BSA containing 2 ng/ml IL-1β Ad6-IL-6(1250 bp).Luc virus and plates were returned to the incubator (34° C.). After […], cells were lysed with 50 μl of Promega Cell Culture Lysis reagenet for about 5 minutes at room temperature on a shaker. After lysing, 15 μl of lysate is transferred to luminometer plates for luciferase determination. Luciferase activity is evaluated using a Perkin Elmer Victor2 1420 multilabel counter. Creatine kinase was determined from the rate of increase in A340 following addition of 100 μl of CK assay reagent (Sigma catalog no. 47-10) to the remainder of the cell lysate.
(§3) For IC50 and EC50 calculations, mean IL-6, luciferase or CK values versus log10 of the compound concentration were fitted to a four parameter logistic equation. The IC50/EC50 value, ‘Hill slope,’ upper and lower limits of the curve were iteratively estimated.

The next data set concerns CK. Description: Creatine kinase assay in ERα infected HAECT-1 cells (Table 2). The class given is cell-based, human. The conditions noted are these: for EC50 / Emax: Homo sapiens; for EC50: HAECT1; for Emax: HAECT1, read-out: CK % Efficacy. Here is the method:
as §1, §2, §3

Setting [1] is: Homo sapiens, HAECT1, ERα infected HAECT-1 cells, IL-1β.
Where [2] appears, read: Homo sapiens, HAECT1, ERα infected HAECT-1 cells, IL-1β, read-out: IL6 luc IC50.
The mark [3] stands for this setting: ERα infected HAECT-1 cells, IL-1β.
Setting [4] is: ERα infected HAECT-1 cells, IL-1β, read-out: IL6 luc IC50.

Where two headings read alike, the source gives them in different places.

In the case of `COCCOC[C@](C#N)(C(=O)OC)[C@H](c1ccccc1OC)c1cccc2ccccc12` (relative stereo) [Example 144, Methyl (2S*,3S*)-2-cyano-2-[(2-methoxyethoxy)methyl]-3-(2-methoxyphenyl)-3-(1-naphthyl)propanoate], the Emax with ER/IL-6 (setting [1]) turned out to be 103%. In addition, the IC50 with ER/IL-6 (setting [2]) was determined as 7 nM. Further, in the data set on CK, the EC50 is 19 nM.
Take `COC[C@](C#N)(C(=O)OC)[C@H](c1cnc2ccccc2c1)c1ccccc1OC` (relative stereo) [Example 165, Methyl (2S*,3R*)-2-cyano-2-(methoxymethyl)-3-(2-methoxyphenyl)-3-quinolin-3-ylpropanoate]: the results for the Emax in the data set with ER/IL-6 (setting [1]) and in the data set with CK were 21% and -22%, respectively.
With `COCCOC[C@](C#N)(C(=O)OC)[C@H](c1ccccc1OC)c1cccc2ccccc12` [Example 158, Methyl (2S,3S)-2-cyano-2-[(2-methoxyethoxy)methyl]-3-(2-methoxyphenyl)-3-(1-naphthyl)propanoate], the Emax in the data set with ER/IL-6 (setting [1]) amounted to 121%; in the data set on CK, 23%. For the same compound, the IC50 in the data set on ER/IL-6 (setting [2]) amounted to 4.5 nM. For the same compound, in the data set on CK, the EC50 stood at 55 nM.
Take `COCC(C#N)(C(=O)OC)C(c1ccccc1OC)c1ccnc2ccccc12` (stereo not drawn) [Example 162, Methyl (RR,SS)-2-cyano-2-(methoxymethyl)-3-(2-methoxyphenyl)-3-quinolin-4-ylpropanoate]: the “IL6 luc % Efficacy” value with ER/IL-6 (setting [3]) worked out at 126%. Also, in the data set with ER/IL-6 (setting [4]), the half-inhibitory concentration (IC50) is 546 nM. For the same compound, the “CK % Efficacy” value with CK is on record as −4%.
The matching figures for `COC(=O)[C@@](C)(C#N)[C@H](c1cnc2ccccc2c1)c1ccccc1OC` [Example 163, Methyl (SS,RR)-2-cyano-3-(2-methoxyphenyl)-2-methyl-3-(quinolin-3-yl)propanoate]: −32%, 2.95 nM and −12%.
The matching figures for `COCCOCC(C#N)(C(=O)N1CCN(c2ncccn2)CC1)C(c1ccccc1OC)c1cccc2ccccc12` (stereo not drawn) [Example 167, (RR,SS)-2-[(2-Methoxyethoxy)methyl]-3-(2-methoxyphenyl)-3-(1-naphthyl)-2-[(4-pyrimidin-2-ylpiperazin-1-yl)carbonyl]propanenitrile]: 72%, 1230 nM and −16%.
Regarding `COc1ccccc1[C@H](c1cccc2ccccc12)[C@@](C)(C#N)C(=O)N1CCc2c([nH]c3ccccc23)C1` [Example 190, (2S,3S)-3-(2-methoxyphenyl)-2-methyl-3-(1-naphthyl)-2-(1,3,4,9-tetrahydro-2H-beta-carbolin-2-ylcarbonyl)propanenitrile], the melting point is 212 to 213 °C. For the same compound, in the data set with ER/IL-6 (setting [2]), the IC50 turned out to be 113 nM.
For the compound `COc1ccccc1[C@H](c1cccc2ccccc12)[C@@](C)(C#N)C(=O)N1CCC(=O)CC1` [Example 191, (2S,3S)-3-(2-methoxyphenyl)-2-methyl-3-(1-naphthyl)-2-[(4-oxopiperidin-1-yl)carbonyl]propanenitrile], the melting point was 209 to 210 °C. For the same compound, in the data set on ER/IL-6 (Homo sapiens, HAECT1, read-out: IL6 luc IC50), the concentration for half-maximal inhibition (IC50) came to 586 nM.
For `CCC(=O)C1(c2ccccc2)CCN(C(=O)[C@](C)(C#N)[C@H](c2ccccc2OC)c2cccc3ccccc23)CC1` [Example 194, (2S,3S)-3-(2-methoxyphenyl)-2-methyl-3-(1-naphthyl)-2-[(4-phenyl-4-propionylpiperidin-1-yl)carbonyl]propanenitrile], the melting point lay in the range of 126 to 128 °C. Further, the Emax in the data set with ER/IL-6 (setting [1]) was determined as 150%. In addition, the half-maximal inhibitory concentration (IC50) with ER/IL-6 (setting [2]) was determined as 132 nM.
The matching figures for `COc1ccccc1[C@H](c1cccc2ccccc12)[C@@](C)(C#N)C(=O)N1CCC(C(C)=O)(c2ccccc2)CC1` [Example 195, (2S)-3-(4-acetyl-4-phenylpiperidin-1-yl)-2-[(S)-(2-methoxyphenyl)(1-naphthyl)methyl]-2-methyl-3-oxopropanenitrile]: 134 to 135 °C, 74% and 710 nM.
`COc1ccccc1[C@H](c1cccc2ccccc12)[C@@](C)(C#N)C(=O)N1CCN(C2CCCCC2)CC1` [Example 196, (2S)-3-(4-cyclohexylpiperazin-1-yl)-2-[(s)-(2-methoxyphenyl)(1-naphthyl)methyl]-2-methyl-3-oxopropanenitrile] registered a melting point of 137 to 138 °C. In addition, in the data set on ER/IL-6 (setting [1]), the Emax came to 142%. Further, the IC50 with ER/IL-6 (setting [2]) was found to be 70 nM.
The matching figures for `COCCN1CCN(C(=O)[C@](C)(C#N)[C@H](c2ccccc2OC)c2cccc3ccccc23)CC1` [Example 197, (2S)-3-[4-(2-methoxyethyl)piperazin-1-yl]-2-[(S)-(2-methoxyphenyl)(1-naphthyl)methyl]-2-methyl-3-oxopropanenitrile]: 144 °C, 46% and 39 nM.
As for `COc1ccccc1[C@H](c1cccc2ccccc12)[C@@](C)(C#N)C(=O)N1CCN(CC(=O)N2CCCC2)CC1` [Example 201, (2S,3S)-3-(2-methoxyphenyl)-2-methyl-3-(1-naphthyl)-2-{[4-(2-oxo-2-pyrrolidin-1-ylethyl)piperazin-1-yl]carbonyl}propanenitrile], the melting point was 203 °C. Moreover, in the data set with ER/IL-6 (setting [1]), the Emax was 45%. Besides, the IC50 with ER/IL-6 (setting [2]) was 1090 nM.
With `COc1ccccc1[C@H](c1cccc2ccccc12)[C@@](C)(C#N)C(=O)N1CCN(CCCN(C)C)CC1` [Example 202, (2S)-3-{4-[3-(dimethylamino)propyl]piperazin-1-yl}-2-[(S)-(2-methoxyphenyl)(1-naphthyl)methyl]-2-methyl-3-oxopropanenitrile], the melting point lay in the range of 78 to 80 °C. The Emax in the data set on ER/IL-6 (setting [1]) turned out to be 43%.
`COCCN1CCN(C(=O)C(C#N)(COC)C(c2ccccc2OC)c2cccc3ccccc23)CC1` (stereo not drawn) [Example 206, 3-[4-(2-methoxyethyl)piperazin-1-yl]-2-(methoxymethyl)-2-[(2-methoxyphenyl)(1-naphthyl)methyl]-3-oxopropanenitrile]: the melting point was 156 to 158 °C. Also, in the data set on ER/IL-6 (setting [1]), the Emax is 83%. Also, the IC50 in the data set on ER/IL-6 (setting [2]) is 345 nM.
`COc1ccccc1C(c1cccc2ccccc12)C(C#N)(COCc1ccccc1)C(=O)N1CCN(CCN2CCOCC2)CC1` (stereo not drawn) [Example 208, 2-[(benzyloxy)methyl]-3-(2-methoxyphenyl)-2-{[4-(2-morpholin-4-ylethyl)piperazin-1-yl]carbonyl}-3-(1-naphthyl)propanenitrile]: the melting point was determined as 162 °C. Further, the Emax in the data set with ER/IL-6 (setting [1]) is 50%. Further, in the data set with ER/IL-6 (setting [2]), the IC50 was found to be 13 nM.
Turning to `COC[C@](C#N)(C(=O)N1CCN(c2ncccn2)CC1)[C@H](c1ccccc1OC)c1cccc2ccccc12` [Example 210, (2S,3S)-2-(methoxymethyl)-3-(2-methoxyphenyl)-3-(1-naphthyl)-2-[(4-pyrimidin-2-ylpiperazin-1-yl)carbonyl]propanenitrile], the melting point is 140 °C. For the same compound, the Emax in the data set on ER/IL-6 (setting [1]) was determined as 132%. In the data set on ER/IL-6 (setting [2]), the 50% inhibitory concentration (IC50) was 16 nM.
`COC[C@@](C#N)(C(=O)N1CCN(c2ncccn2)CC1)[C@@H](c1ccccc1OC)c1cccc2ccccc12` [Example 211, (2R,3R)-2-(methoxymethyl)-3-(2-methoxyphenyl)-3-(1-naphthyl)-2-[(4-pyrimidin-2-ylpiperazin-1-yl)carbonyl]propanenitrile] gave a melting point of 136 to 137 °C. For the same compound, the Emax in the data set on ER/IL-6 (setting [1]) is 78%. The IC50 in the data set on ER/IL-6 (setting [2]) stood at 268 nM.

The IC50 is the concentration needed to halve the response being measured. Usually EC50 stands for the concentration giving half of the maximal effect. In general, melting point refers to the temperature, or range, at which the solid turns liquid.
